# Tests used:
# [1] = system: ATF4 target genes ATF3, CHOP and DDIT4; assay: Quantitative RT-PCR of ATF4 target genes; format: cell-based, human
# Description: The U937 GCN2−/− cell line is derived from a single clone of U937 parental cells stably infected with a lentiviral CRISPR vector targeting GCN2. […] Cells were incubated with DMSO or 200 nM Compound D and lysed at the indicated time points. Arrows pointing to bands in the blot on the right designate the cleaved forms of caspase-3. […] The U937 GCN2−/− cell line is derived from a single clone of U937 parental cells stably infected with a lentiviral CRISPR vector targeting GCN2. […] Cells were treated with DMSO or Compound D for 24 hours. On day 3 after Compound D treatment, cell proliferation was assessed by CTG. Result shown in all figure panels is representative of at least three biological replicates. Data in FIGS. 13C, 13D and 13E are shown as mean±SD, n=3 technical replicates.
# Specifically, following incubation with DMSO or Compound D, cells were collected via centrifugation at 2000 rpm for 2 minutes. Cell pellets were then washed once in ice-cold PBS and snap-frozen in liquid nitrogen. […] The cDNA transcripts of GADPH, DDIT3 (CHOP), DDIT4 (REDD), and ATF3 were quantified by the ViiA™ 7 Real-Time PCR System using TaqMan Gene Expression Assay probes (Invitrogen). The cDNA level of various CRBN transcripts was quantified using RT^2 SYBR Green qPCR Mastermixes (Qiagen). […]
# U937 Cas9 cell lines = assay: Cell proliferation assay (CTG, 5 days) in U937 cells after RNP electroporation knockout; format: cell-based, human
# From the text: Next, the roles of additional negative regulators of mTOR were studied. To knockout the studied genes, an electroporation-based method was used where a ribonucleoprotein (RNP) consisting of the Cas9 protein and gene-targeting gRNA was directly delivered to the U937 cells. A crRNA-tracrRNA duplex was first prepared consisting of the crRNA with a 20 nt sequence specific to each target gene and the universal tracrRNA to guide the Cas9 nuclease to the genomic locus. The sgRNA sequences targeting CRBN, ATF4, GCN1, GCN2, DDIT4, TSC1, TSC2, or non-targeting (NT-1) and non-coding (NC-8) controls were selected from the Cellecta sgRNA library. After pre-coupling the Cas9 enzyme to the crRNA-tracrRNA duplex, the complex was mixed with one million U937 cells per sample in nucleofection solution (4D-Nucleofector X kit SE; Lonza). Cells were electroporated in a 4D nucleofector according to the manufacturer's instructions and plated into complete cell culture media.
# Then a cell proliferation assay was performed. Compound D dissolved in DMSO was injected into 96-well cell culture plates using a HP D300 digital dispenser in triplicate for each final Compound D concentration. […] After 5 days, cell proliferation was assessed using CTG (CellTiter-Glo) according to the manufacturer's instructions to assess the effects of Compound D on proliferation of each cell line.
structure (smiles),measurement,setting,value
"O=C1CCC(N2Cc3cc(CNC(=O)C(F)(F)c4ccc(Cl)cc4)ccc3C2=O)C(=O)N1 (stereo not shown) [Compound D, 2-(4-chlorophenyl)-N-((2-(2,6-dioxopiperidin-3-yl)-1-oxoisoindolin-5-yl)methyl)-2,2-difluoroacetamide]",mRNA level of ATF4 target genes,"[1]; U937 24 hours, KG-1 200 nM for 2, 4 or 6 hours","marked induction of ATF4 target genes ATF3, CHOP and DDIT4 at the mRNA level"
same,induction of ATF3 and CHOP after GCN2 loss,"[1]; U937 GCN2-/-, 24 hours","largely, but not completely, blocked the induction of other ATF4 target genes ATF3 and CHOP"
same,"anti-proliferative effects after depletion of GCN2, ATF4, GCN1, CRBN, DDIT4, TSC1, TSC2",U937 Cas9 cell lines; U937,diminished this effect
same,anti-proliferative effects in control cells,U937 Cas9 cell lines; U937 parental and non-coding (NC-8) controls,dose-dependent anti-proliferative effects

# Reference: US20220389515A1, “USE OF BIOMARKERS TO PREDICT CLINICAL SENSITIVITY TO 2-(4-CHLOROPHENYL)-N-((2-(2,6-DIOXOPIPERIDIN-3-YL)-1-OXOISOINDOLIN-5-YL)METHYL)-2,2-DIFLUOROACETAMIDE” (priority 2019, published 2022)
